Among the data in US20220289765A1, “CRYSTAL OF CARCINOGENIC FUSED KINASE INHIBITOR AND APPLICATIONS THEREOF” (Simcere Pharmaceutical Co., Ltd., priority 2019, published 2022) are IC50, T/C and TGI values, retold here.

Test [1] deals with Ba/F3 SLC34A2-ROS1-G2032R. In words: Cell proliferation inhibition (CellTiter-Glo, 72 h). To be noted: Mus musculus, BaF3, read-out: Half Inhibitory Concentrations of Cells IC50, Ba/F3 SLC34A2-ROS1-G2032R. It counts as cell-based. (In general: In ATP-based viability assays light output follows the ATP content of the culture.)
For a further test, the target named is T1, ALK (Homo sapiens, UniProt Q9UM73).
T1 construct: purchased Reaction Biology Corp
T1 sequence (Q9UM73 19-1620): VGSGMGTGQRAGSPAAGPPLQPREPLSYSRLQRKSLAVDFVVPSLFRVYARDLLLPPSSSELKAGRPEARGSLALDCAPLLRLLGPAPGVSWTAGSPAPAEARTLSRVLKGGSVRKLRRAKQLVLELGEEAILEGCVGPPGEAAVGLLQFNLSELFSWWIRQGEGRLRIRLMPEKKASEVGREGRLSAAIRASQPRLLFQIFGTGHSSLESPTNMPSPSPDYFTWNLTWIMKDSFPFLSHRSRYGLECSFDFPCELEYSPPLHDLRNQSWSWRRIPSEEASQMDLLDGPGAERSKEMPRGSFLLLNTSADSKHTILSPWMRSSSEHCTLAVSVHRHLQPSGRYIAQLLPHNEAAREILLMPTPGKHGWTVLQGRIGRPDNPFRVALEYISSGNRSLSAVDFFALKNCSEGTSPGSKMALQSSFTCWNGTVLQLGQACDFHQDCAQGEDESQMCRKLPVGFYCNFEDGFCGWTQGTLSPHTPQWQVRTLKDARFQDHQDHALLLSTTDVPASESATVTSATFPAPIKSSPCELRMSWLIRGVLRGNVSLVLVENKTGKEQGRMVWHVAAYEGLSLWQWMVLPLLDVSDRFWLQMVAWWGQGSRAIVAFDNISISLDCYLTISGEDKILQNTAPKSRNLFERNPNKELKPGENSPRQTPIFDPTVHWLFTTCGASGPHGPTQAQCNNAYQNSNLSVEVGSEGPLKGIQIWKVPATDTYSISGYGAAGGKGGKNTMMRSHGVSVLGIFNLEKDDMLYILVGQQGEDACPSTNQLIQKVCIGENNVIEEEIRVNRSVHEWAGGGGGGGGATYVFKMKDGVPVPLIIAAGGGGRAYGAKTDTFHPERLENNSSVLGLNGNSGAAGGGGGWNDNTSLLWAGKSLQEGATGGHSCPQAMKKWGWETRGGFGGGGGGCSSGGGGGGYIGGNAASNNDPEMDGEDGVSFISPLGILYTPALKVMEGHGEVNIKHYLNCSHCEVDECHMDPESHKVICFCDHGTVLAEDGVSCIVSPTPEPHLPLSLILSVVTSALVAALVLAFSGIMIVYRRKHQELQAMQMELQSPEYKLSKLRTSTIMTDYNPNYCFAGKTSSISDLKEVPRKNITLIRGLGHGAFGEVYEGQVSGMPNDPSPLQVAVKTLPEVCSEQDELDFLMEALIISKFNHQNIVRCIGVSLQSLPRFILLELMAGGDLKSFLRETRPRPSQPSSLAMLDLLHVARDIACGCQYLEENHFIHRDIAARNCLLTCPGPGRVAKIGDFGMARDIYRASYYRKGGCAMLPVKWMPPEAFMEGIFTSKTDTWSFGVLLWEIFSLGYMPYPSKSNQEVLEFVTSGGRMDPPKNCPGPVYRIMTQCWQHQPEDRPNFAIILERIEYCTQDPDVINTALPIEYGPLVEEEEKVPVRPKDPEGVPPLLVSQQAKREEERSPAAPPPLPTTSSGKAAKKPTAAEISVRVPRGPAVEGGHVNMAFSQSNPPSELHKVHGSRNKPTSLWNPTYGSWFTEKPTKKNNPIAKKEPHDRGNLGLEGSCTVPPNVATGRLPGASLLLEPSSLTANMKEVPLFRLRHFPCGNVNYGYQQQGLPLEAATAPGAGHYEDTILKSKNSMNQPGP
Briefly: Kinase inhibitory activity (33P-ATP filtration-binding, Reaction Biology Corp.). It counts as biochemical. The note with it: read-out: Half Inhibitory Concentrations of Kinases IC50, ALK. On the procedure: The inhibitory activity tests of compounds against kinases such as TrkA, TrkC, ALK, Ros1 were completed in Reaction Biology Corp. Certain concentrations of substrate, cofactors, kinases and test compounds (10 doses, 3-fold serial dilutions, 2% DMSO final concentration) were sequentially added to the reaction buffer (20 mM Hepes (pH 7.5), 10 mM MgCl2, 1 mM EGTA, 0.02% Brij35, 0.02 mg/mL BSA, 0.1 mM Na3VO4, 2 mM DTT, 1% DMSO), and mixed well. The resulting mixture was incubated at room temperature for 20 minutes, and a certain concentration of 33P-ATP was added to the reaction mixture to initiate the reaction, followed by incubation at room temperature for 120 minutes. Finally, the radioactivity of the reactants was detected by a filtration-binding method. The final kinase activity was expressed by the ratio of the remaining kinase activity in the test sample to the kinase activity of the DMSO control group. The dose-effect curve was fitted by GraphPad software and the IC50 values were calculated.

For another test, the system named is Ba/F3 LMNA-NTRK1-F589L. In words: Cell proliferation inhibition (CellTiter-Glo, 72 h). The note with it: Mus musculus, BaF3, read-out: Half Inhibitory Concentrations of Cells IC50, Ba/F3 LMNA-NTRK1-F589L. It counts as cell-based.
In test [2] the test system is human lung cancer LU-01-0414 subcutaneous xenograft tumor. Briefly: Efficacy test in mice, LU-01-0414 subcutaneous xenograft. The format is in vivo, BALB/c mouse. To be noted: PO, 14 days, LU-01-0414 xenograft. On the procedure:
The in vivo efficacy of test drugs such as the compound of Formula (I) on human lung cancer LU-01-0414 subcutaneous xenograft tumor in a BALB/c mouse model was evaluated.
The compounds were prepared into clear solutions using 5% DMSO+10% solutol+85% water as a solvent for administration in PO (gavage) groups.
The tumor diameters were measured twice a week using a vernier caliper. The formula for calculating the tumor volume is: V=0.5×a×b^2, wherein a and b represent the long diameter and the short diameter of the tumor, respectively. The antitumor efficacy of the compounds was evaluated with TGI (%), which reflects the inhibition rate of tumor growth.
Statistical analysis was performed using SPSS software based on relative tumor volume and tumor weight at the end of the experiment. Comparisons among multiple groups were analyzed by one-way ANOVA. If the variances were homogeneous (no significant difference in F-values), the analysis was performed by the Tukey's method, and if the variances were not homogeneous (significant difference in F-values), the test was performed by the Games-Howell method. P<0.05 was considered as a significant difference.

The test system of the next test is Ba/F3 LMNA-NTRK1-G595R. In words: Cell proliferation inhibition (CellTiter-Glo, 72 h). The format is cell-based. To be noted: Mus musculus, BaF3, read-out: Half Inhibitory Concentrations of Cells IC50, Ba/F3 LMNA-NTRK1-G595R.
The subject of test [3] is Ba/F3 LMNA-NTRK1-WT stable transformant cell line. The test is described as above. It counts as cell-based. The note with it: Mus musculus, BaF3, read-out: Half Inhibitory Concentrations of Cells IC50, Ba/F3 LMNA-NTRK1-WT. On the procedure: Adenosine Tri-Phosphate (ATP) is an energy carrier shared by various life activities in nature and is the smallest unit of energy storage and transfer. In CellTiter-Glo™ Live Cell Detection Kit, luciferase was used as a detection substance, and it required the involvement of ATP during luminescence. CellTiter-Glo™ reagent was added to the cell culture medium to measure a luminescence value, and the light signal was proportional to the amount of ATP in the system, and ATP was positively correlated to the number of viable cells. Therefore, by detecting the ATP content using the CellTiter-Glo Kit, cell proliferation can be detected. In this test, the cell line was Ba/F3 LMNA-NTRK1-WT stable transformant cell line, and the number of cells was 5000/well.
• a) Cells in the logarithmic growth phase were harvested and counted by using a […]. Cell viability was detected by trypan blue exclusion assay to ensure that the cell viability was above 90%. • b) The cell concentration was adjusted, and 90 μL cell suspension was added to a 96-well plate, respectively. • c) Cells in the 96-well plate were incubated overnight at 37° C., 5% CO2 and 95% humidity. […]
The data were analyzed using GraphPad Prism 5.0 software, and were fitted to obtain a dose-effect curve using a non-linear S-curve regression, and the IC50 values were calculated therefrom.

In general, T/C refers to the ratio of treated to control.

For the molecule `O=C1NC2(CC2)COc2ncc(F)cc2[C@H]2CCON2c2ccn3ncc1c3n2` [Compound of Formula (I)], the IC50 worked out at 16.1 nM in test [1]; 13 nM on ALK; 0.78 nM in the test on Ba/F3 LMNA-NTRK1-F589L; 6.2 nM in the test with Ba/F3 LMNA-NTRK1-G595R; 1.26 nM in test [3]. For the same molecule, the results for the T/C in test [2] (3 mg/kg BID), in test [2] (15 mg/kg BID) and in test [2] (30 mg/kg BID) were 9.57%, 3.07% and 1.87%, respectively. Further, the TGI in test [2] (3 mg/kg BID) is 118.02%; in test [2] (15 mg/kg BID), 126.88%; in test [2] (30 mg/kg BID), 128.36%.
